{"source": "paper PMC10600247", "about": "“Impact of C- and N-terminal protection on the stability, metal chelation and antimicrobial properties of calcitermin” (Scientific Reports, 2023)", "key": {"C. albicans (ATCC 10231)": {"test_system": "C. albicans (ATCC 10231)", "assay": "In vitro antifungal CFU assay", "assay_type": "cell-based, Candida albicans", "conditions": "pH 5.4", "method": "(§1) All microbes were grown at 37 °C in Tryptic Soy Broth (TSB; Biolife, Milan, Italy) or Tryptic Soy Agar plates (TSA, Biolife, Milan, Italy). Peptides were tested at a final concentration C = 0.128, 0.064, 0.032 mg/mL, in the presence or absence of ZnCl2 or CuCl2, at a M:L molar ratio 0.9:1. Briefly, all the microbes were expanded in TSB at 37 °C under agitation for 12 h and then sub-cultured by 1:10 dilution in TSB under the same conditions until reaching OD600nm = 0.3–0.4, as measured by spectrophotometric reading using a GENESYS 10S UV–Vis spectrophotometer (Thermo Scientific, Milan, Italy), corresponding to 0.9–1.2 × 10^7 colony forming units (CFU) per mL, 1.5–2 × 10^8 CFU/mL and 2.4–3.2 × 10^8 CFU/mL, for C. albicans, S. aureus and E. coli respectively. The cultures were then centrifuged at 4500 rpm for 10 min in a SL 8 centrifuge (TX-150 Rotor) (Thermo Scientific, Milan, Italy), and the cellular pellets were washed with PBS pH 5.4. Pelletized cultures were then suspended in 10 mL of PBS pH 5.4, then the suspensions were diluted to a final concentration of 10^4 CFU/mL. Aliquots of 100 µl (corresponding to 10^3 CFU) were seeded in each well of a 96-wells plate. 3 µl of TSB at pH 5.4 were added to each well to obtain a final 1.5% TSB concentration in the culture medium. Peptides were serially diluted in PBS pH 5.4 to C = 0.257, 0.128, and 0.064 mg/mL. ZnCl2 and CuCl2 solutions were added where requested to obtain a M:L ratio 0.9:1. 100 µl of the prepared peptides ± ZnCl2/CuCl2 solutions were then added to each well, obtaining the final 0.128, 0.064 and 0.032 mg/mL peptide concentrations in a total 0.2 mL volume. PBS alone and PBS + ZnCl2/CuCl2 solutions were included as controls. The plates were incubated at 37 °C on a platform rocker with slow stirring for 3 and 24 h. At the end of the incubation times, 100 µl aliquots were taken from each sample and diluted in PBS pH 5.4 to be seeded on TSA plates. Specifically, aliquots were diluted 1:10 at 3 h, and 1:200, 1:100,000 and 1:10 at 24 h, for C. albicans, E. coli, and S. aureus respectively. After incubation for 24 h at 37 °C, grown CFUs were enumerated. Samples were assayed in triplicate in two independent experiments. Student’s t-test was used for the evaluation of significance in biological tests; a p value ≤ 0.05 was considered significant."}, "E. coli (ATCC 25922)": {"test_system": "E. coli (ATCC 25922)", "assay": "In vitro anti-E. coli CFU assay", "assay_type": "cell-based, Escherichia coli", "conditions": "pH 5.4; for CFU decrease/increase with respect to untreated controls / mean CFU number ± S.D.: metal salt alone, one value per peptide panel", "method": "as §1"}, "S. aureus (ATCC 25293)": {"test_system": "S. aureus (ATCC 25293)", "assay": "In vitro anti-S. aureus CFU assay", "assay_type": "cell-based, Staphylococcus aureus", "conditions": "3 h, pH 5.4; for mean CFU number ± S.D.: metal salt alone, one value per peptide panel", "method": "as §1"}, "[1]": {"conditions": "metal salt alone, same concentration as used with 0.032 mg/mL peptide, 24 h, one value per peptide panel"}, "[2]": {"conditions": "metal salt alone, same concentration as used with 0.064 mg/mL peptide, 24 h, one value per peptide panel"}, "[3]": {"conditions": "same concentration as used with 0.032 mg/mL peptide, 3 h"}, "[4]": {"conditions": "same concentration as used with 0.032 mg/mL peptide, 24 h"}, "[5]": {"conditions": "same concentration as used with 0.064 mg/mL peptide, 3 h"}, "[6]": {"conditions": "same concentration as used with 0.064 mg/mL peptide, 24 h"}, "[7]": {"conditions": "same concentration as used with 0.128 mg/mL peptide, 3 h"}, "[8]": {"conditions": "same concentration as used with 0.032 mg/mL peptide"}, "[9]": {"conditions": "same concentration as used with 0.064 mg/mL peptide"}}, "note": "“And” between values parts separate entries of the source, which are not always exact repeats. Identical values can stand only once.", "data": [{"smiles": "[Cl][Cu][Cl]", "note": "[CuCl2, reference compound]", "values": [{"measurement": "mean CFU number ± S.D.", "setting": "C. albicans (ATCC 10231); [1]", "result": "2,184 ± 195 CFU and 1,671 ± 25 CFU and 2,558 ± 367 CFU and 1,800 ± 195 CFU"}, {"measurement": "mean CFU number ± S.D.", "setting": "C. albicans (ATCC 10231); [2]", "result": "2,152 ± 228 CFU and 1,697 ± 81 CFU and 2,456 ± 236 CFU and 1,820 ± 125 CFU"}, {"measurement": "mean CFU number ± S.D.", "setting": "C. albicans (ATCC 10231); metal salt alone, same concentration as used with 0.128 mg/mL peptide, 24 h, one value per peptide panel", "result": "1,816 ± 109 CFU and 2,139 ± 55 CFU and 1,360 ± 68 CFU and 1,946 ± 96 CFU"}, {"measurement": "CFU number reduction by the metal salt alone, over all performed assays", "setting": "E. coli (ATCC 25922); 3 h", "result": "up to 96%"}, {"measurement": "CFU number reduction by the metal salt alone, over all performed assays", "setting": "E. coli (ATCC 25922); 24 h", "result": "up to 96%"}, {"measurement": "CFU decrease/increase with respect to untreated controls", "setting": "E. coli (ATCC 25922); [3]", "result": "-36% and -42%"}, {"measurement": "mean CFU number ± S.D.", "setting": "E. coli (ATCC 25922); [3]", "result": "474 ± 91 CFU and 665 ± 96 CFU"}, {"measurement": "mean CFU number ± S.D.", "setting": "E. coli (ATCC 25922); [4]", "result": "160 ± 42 CFU and 256 ± 3 CFU"}, {"measurement": "mean CFU number ± S.D.", "setting": "E. coli (ATCC 25922); [5]", "result": "255 ± 23 CFU and 383 ± 82 CFU"}, {"measurement": "mean CFU number ± S.D.", "setting": "E. coli (ATCC 25922); [6]", "result": "93 ± 28 CFU and 47 ± 28 CFU"}, {"measurement": "CFU decrease/increase with respect to untreated controls", "setting": "E. coli (ATCC 25922); [7]", "result": "-95% and -92%"}, {"measurement": "mean CFU number ± S.D.", "setting": "E. coli (ATCC 25922); [7]", "result": "57 ± 4 CFU and 64 ± 24 CFU"}, {"measurement": "mean CFU number ± S.D.", "setting": "S. aureus (ATCC 25293); [8]", "result": "201 ± 25 CFU and 178 ± 2 CFU"}, {"measurement": "mean CFU number ± S.D.", "setting": "S. aureus (ATCC 25293); [9]", "result": "170 ±17 CFU and 188 ± 62 CFU"}, {"measurement": "mean CFU number ± S.D.", "setting": "S. aureus (ATCC 25293); same concentration as used with 0.128 mg/mL peptide", "result": "201 ± 23 CFU and 159 ± 22 CFU"}]}, {"smiles": "[Cl-].[Cl-].[Zn+2]", "note": "[ZnCl2, reference compound]", "values": [{"measurement": "CFU number reduction by the metal salt alone, over all performed assays", "setting": "C. albicans (ATCC 10231); 3 h", "result": "up to 64.9%"}, {"measurement": "CFU number reduction by the metal salt alone, over all performed assays", "setting": "C. albicans (ATCC 10231); 24 h", "result": "≤ 94", "unit": "%"}, {"measurement": "mean CFU number ± S.D.", "setting": "C. albicans (ATCC 10231); metal salt alone, same concentration as used with 0.032 mg/mL peptide, 3 h, one value per peptide panel", "result": "94.2 ± 23 CFU and 91 ± 25 CFU and 107 ± 13 CFU"}, {"measurement": "mean CFU number ± S.D.", "setting": "C. albicans (ATCC 10231); [1]", "result": "1,915 ± 234 CFU and 1,797 ± 162 CFU and 2,249 ± 145 CFU and 1,413.7 ± 348 CFU"}, {"measurement": "mean CFU number ± S.D.", "setting": "C. albicans (ATCC 10231); metal salt alone, same concentration as used with 0.064 mg/mL peptide, 3 h, one value per peptide panel", "result": "49 ± 2 CFU and 87 ± 6 CFU and 75.33 ± 25 CFU and 98 ± 15 CFU"}, {"measurement": "CFU decrease/increase with respect to untreated controls", "setting": "C. albicans (ATCC 10231); [2]", "result": "-36% and -40% and -38%"}, {"measurement": "mean CFU number ± S.D.", "setting": "C. albicans (ATCC 10231); metal salt alone, same concentration as used with 0.128 mg/mL peptide, 3 h, one value per peptide panel", "result": "32 ± 9 CFU and 62 ± 6 CFU and 53 ± 14 CFU and 34.7 ± 9 CFU"}, {"measurement": "CFU decrease/increase with respect to untreated controls", "setting": "E. coli (ATCC 25922); [3]", "result": "-47% and -45%"}, {"measurement": "mean CFU number ± S.D.", "setting": "E. coli (ATCC 25922); [3]", "result": "449 ± 74 CFU and 559 ± 25 CFU"}, {"measurement": "CFU decrease/increase with respect to untreated controls", "setting": "E. coli (ATCC 25922); [4]", "result": -1, "unit": "%"}, {"measurement": "mean CFU number ± S.D.", "setting": "E. coli (ATCC 25922); [4]", "result": "170 ± 14 CFU and 238 ± 16 CFU"}, {"measurement": "mean CFU number ± S.D.", "setting": "E. coli (ATCC 25922); [5]", "result": "249 ± 11 CFU and 329 ± 11 CFU"}, {"measurement": "CFU decrease/increase with respect to untreated controls", "setting": "E. coli (ATCC 25922); [6]", "result": "-3% and -5%"}, {"measurement": "mean CFU number ± S.D.", "setting": "E. coli (ATCC 25922); [6]", "result": "163 ± 47 CFU and 235 ± 6 CFU"}, {"measurement": "CFU decrease/increase with respect to untreated controls", "setting": "E. coli (ATCC 25922); [7]", "result": "-95% and -91%"}, {"measurement": "mean CFU number ± S.D.", "setting": "E. coli (ATCC 25922); [7]", "result": "49 ± 8 CFU and 72 ± 21 CFU"}, {"measurement": "mean CFU number ± S.D.", "setting": "E. coli (ATCC 25922); same concentration as used with 0.128 mg/mL peptide, 24 h", "result": "168 ± 22", "unit": "CFU"}, {"measurement": "CFU reduction by the metal salt alone compared to controls, over all performed assays", "setting": "S. aureus (ATCC 25293)", "result": "up to 77%"}, {"measurement": "mean CFU number ± S.D.", "setting": "S. aureus (ATCC 25293); [8]", "result": "178 ± 60 CFU and 121 ± 11 CFU and 125 ± 60 CFU"}, {"measurement": "mean CFU number ± S.D.", "setting": "S. aureus (ATCC 25293); [9]", "result": "84 ± 13 CFU and 100 ± 11 CFU"}]}]}
